Test results from US8309718B2, “4-pyrazolyl-N-arylpyrimidin-2-amines and 4-pyrazolyl-N-heteroarylpyrimidin-2-amines as janus kinase inhibitors” (Incyte Corporation, priority 2007, dated 2012).

target: T1, human JAK2 (Homo sapiens, UniProt O60674); test: In vitro JAK kinase assay (HTRF, phosphorylation of biotinylated peptide); type: biochemical; settings: catalytic domain a.a. 828-1132, 30 μM ATP, 500 nM peptide, room temperature 1 hr; read-out: JAK-2 IC50
T1 construct: JAK2 (a.a. 828-1132); His tag (N); made in house; host or cells: insect cells (baculovirus)
T1 sequence (O60674 828-1132): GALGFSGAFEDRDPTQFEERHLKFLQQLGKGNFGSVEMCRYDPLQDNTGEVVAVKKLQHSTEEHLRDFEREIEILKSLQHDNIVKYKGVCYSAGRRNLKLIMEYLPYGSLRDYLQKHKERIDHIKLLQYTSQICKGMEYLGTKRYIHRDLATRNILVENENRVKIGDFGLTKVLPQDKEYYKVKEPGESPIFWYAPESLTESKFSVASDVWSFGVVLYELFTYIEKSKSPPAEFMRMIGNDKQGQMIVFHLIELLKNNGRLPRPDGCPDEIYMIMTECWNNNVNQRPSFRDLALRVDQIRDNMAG
Summary of the method: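 IC50 from HTRF detection (Eu-Py20 antibody, SA-APC) of biotinylated-peptide phosphorylation (500 nM), run 1 h at RT. Enzyme: N-His human JAK2 kinase domain a.a. 828-1132 from insect cells; ATP 30 μM; buffer 50 mM Tris pH 7.8 with NaCl, DTT, BSA.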

Compound | IC50
N#CCC(C1CCCC1)n1cc(-c2ccnc(Nc3ccc(C(=O)N4CCCC4)cc3)n2)cn1 (racemic) [Example 122, 3-cyclopentyl-3-(4-(2-(4-(pyrrolidine-1-carbonyl)phenylamino)pyrimidin-4-yl)-1H-pyrazol-1-yl)propanenitrile] | < 100 nM
N#CCC(C1CCCC1)n1cc(-c2ccnc(Nc3ccc(C(=O)N4CCNC(=O)C4)cc3)n2)cn1 (racemic) [Example 123, 3-cyclopentyl-3-(4-(2-(4-(3-oxopiperazine-1-carbonyl)phenylamino)pyrimidin-4-yl)-1H-pyrazol-1-yl)propanenitrile] | < 100 nM
N#CCC(C1CCCC1)n1cc(-c2ccnc(Nc3ccc(C(=O)N4CCC(O)CC4)cc3)n2)cn1 (racemic) [Example 124, 3-cyclopentyl-3-(4-(2-(4-(4-hydroxypiperidine-1-carbonyl)phenylamino)pyrimidin-4-yl)-1H-pyrazol-1-yl)propanenitrile] | < 100 nM
CCCN(CC1CC1)C(=O)c1ccc(Nc2nccc(-c3cnn(C(CC#N)C4CCCC4)c3)n2)cc1 (racemic) [Example 125, 4-(4-(1-(2-cyano-1-cyclopentylethyl)-1H-pyrazol-4-yl)pyrimidin-2-ylamino)-N-(cyclopropylmethyl)-N-propylbenzamide] | < 100 nM
N#CCC(C1CCCC1)n1cc(-c2ccnc(Nc3ccc(C(=O)NCC4CC4)cc3)n2)cn1 (racemic) [Example 126, 4-(4-(1-(2-cyano-1-cyclopentylethyl)-1H-pyrazol-4-yl)pyrimidin-2-ylamino)-N-(cyclopropylmethyl)benzamide] | < 100 nM
N#CCC(C1CCCC1)n1cc(-c2ccnc(Nc3ccc(C(=O)N4CCC4)cc3)n2)cn1 (racemic) [Example 128, 3-(4-(2-(4-(azetidine-1-carbonyl)phenylamino)pyrimidin-4-yl)-1H-pyrazol-1-yl)-3-cyclopentylpropanenitrile] | < 100 nM
N#CCC(C1CCCC1)n1cc(-c2ccnc(Nc3ccc(N4CCCC4=O)cc3)n2)cn1 (racemic) [Example 129, 3-cyclopentyl-3-(4-(2-(4-(2-oxopyrrolidin-1-yl)phenylamino)pyrimidin-4-yl)-1H-pyrazol-1-yl)propanenitrile] | < 100 nM
COc1cnc(Nc2ccc(N3CCCC3=O)cc2)nc1-c1cnn(C(CC#N)C2CCCC2)c1 (racemic) [Example 130, 3-cyclopentyl-3-(4-(5-methoxy-2-(4-(2-oxopyrrolidin-1-yl)phenylamino)pyrimidin-4-yl)-1H-pyrazol-1-yl)propanenitrile] | < 100 nM
COc1cnc(Nc2ccc(-c3cnco3)cc2)nc1-c1cnn(C(CC#N)C2CCCC2)c1 (racemic) [Example 131, 3-cyclopentyl-3-(4-(5-methoxy-2-(4-(oxazol-5-yl)phenylamino)pyrimidin-4-yl)-1H-pyrazol-1-yl)propanenitrile] | < 100 nM
COc1cnc(Nc2cccc(-c3cnco3)c2)nc1-c1cnn(C(CC#N)C2CCCC2)c1 (racemic) [Example 132, 3-cyclopentyl-3-(4-(5-methoxy-2-(3-(oxazol-5-yl)phenylamino)pyrimidin-4-yl)-1H-pyrazol-1-yl)propanenitrile] | < 100 nM
COc1cnc(Nc2ccc(N3CCOCC3=O)cc2)nc1-c1cnn(C(CC#N)C2CCCC2)c1 (racemic) [Example 133, 3-cyclopentyl-3-(4-(5-methoxy-2-(4-(3-oxomorpholino)phenylamino)pyrimidin-4-yl)-1H-pyrazol-1-yl)propanenitrile] | < 100 nM
COc1cnc(Nc2cccc(-c3ccnc(C)n3)c2)nc1-c1cnn(C(CC#N)C2CCCC2)c1 (racemic) [Example 134, 3-cyclopentyl-3-(4-(5-methoxy-2-(3-(2-methylpyrimidin-4-yl)phenylamino)pyrimidin-4-yl)-1H-pyrazol-1-yl)propanenitrile] | < 100 nM
COc1cnc(Nc2ccc(N3CCCCC3=O)cc2)nc1-c1cnn(C(CC#N)C2CCCC2)c1 (racemic) [Example 135, 3-cyclopentyl-3-(4-(5-methoxy-2-(4-(2-oxopiperidin-1-yl)phenylamino)pyrimidin-4-yl)-1H-pyrazol-1-yl)propanenitrile] | < 100 nM
COc1cnc(Nc2ccc(N3CCOC3=O)cc2)nc1-c1cnn(C(CC#N)C2CCCC2)c1 (racemic) [Example 136, 3-cyclopentyl-3-(4-(5-methoxy-2-(4-(2-oxooxazolidin-3-yl)phenylamino)pyrimidin-4-yl)-1H-pyrazol-1-yl)propanenitrile] | < 100 nM
CN1CCN(C(=O)c2cccc(Nc3nccc(-c4cnn(C(CC#N)C5CCCC5)c4)n3)c2)CC1 (racemic) [Example 137, 3-cyclopentyl-3-(4-(2-(3-(4-methylpiperazine-1-carbonyl)phenylamino)pyrimidin-4-yl)-1H-pyrazol-1-yl)propanenitrile] | < 100 nM
N#CCC(C1CCCC1)n1cc(-c2ccnc(Nc3cccc(C(=O)N4CCN(CCO)CC4)c3)n2)cn1 (racemic) [Example 138, 3-cyclopentyl-3-(4-(2-(3-(4-(2-hydroxyethyl)piperazine-1-carbonyl)phenylamino)pyrimidin-4-yl)-1H-pyrazol-1-yl)propanenitrile] | < 100 nM
N#CCC(C1CCCC1)n1cc(-c2ccnc(Nc3cccc(C(=O)N4CCCC4)c3)n2)cn1 (racemic) [Example 139, 3-cyclopentyl-3-(4-(2-(3-(pyrrolidine-1-carbonyl)phenylamino)pyrimidin-4-yl)-1H-pyrazol-1-yl)propanenitrile] | < 100 nM
N#CCC(C1CCCC1)n1cc(-c2ccnc(Nc3cccc(C(=O)N4CCNC(=O)C4)c3)n2)cn1 (racemic) [Example 140, 3-cyclopentyl-3-(4-(2-(3-(3-oxopiperazine-1-carbonyl)phenylamino)pyrimidin-4-yl)-1H-pyrazol-1-yl)propanenitrile] | < 100 nM
N#CCC(C1CCCC1)n1cc(-c2ccnc(Nc3cccc(C(=O)N4CCC4)c3)n2)cn1 (racemic) [Example 142, 3-(4-(2-(3-(azetidine-1-carbonyl)phenylamino)pyrimidin-4-yl)-1H-pyrazol-1-yl)-3-cyclopentylpropanenitrile] | < 100 nM
CC(=O)N1CCN(C(=O)c2cccc(Nc3nccc(-c4cnn(C(CC#N)C5CCCC5)c4)n3)c2)CC1 (racemic) [Example 143, 3-(4-(2-(3-(4-acetylpiperazine-1-carbonyl)phenylamino)pyrimidin-4-yl)-1H-pyrazol-1-yl)-3-cyclopentylpropanenitrile] | < 100 nM
N#CCC(C1CCCC1)n1cc(-c2ccnc(Nc3cccc(C(=O)N4CCC(Cc5cccnc5)CC4)c3)n2)cn1 (racemic) [Example 144, 3-cyclopentyl-3-(4-(2-(3-(4-(pyridin-3-ylmethyl)piperidine-1-carbonyl)phenylamino)pyrimidin-4-yl)-1H-pyrazol-1-yl)propanenitrile] | < 100 nM
N#CCC(C1CCCC1)n1cc(-c2ccnc(Nc3cccc(C(=O)NCc4cccnc4)c3)n2)cn1 (racemic) [Example 146, 3-(4-(1-(2-cyano-1-cyclopentylethyl)-1H-pyrazol-4-yl)pyrimidin-2-ylamino)-N-(pyridin-3-ylmethyl)benzamide] | < 100 nM
N#CCC(C1CCCC1)n1cc(-c2ccnc(Nc3cccc(C(=O)N4CCOCC4)c3)n2)cn1 (racemic) [Example 147, 3-cyclopentyl-3-(4-(2-(3-(morpholine-4-carbonyl)phenylamino)pyrimidin-4-yl)-1H-pyrazol-1-yl)propanenitrile] | < 100 nM
Cc1cc(CNC(=O)c2cccc(Nc3nccc(-c4cnn(C(CC#N)C5CCCC5)c4)n3)c2)no1 (racemic) [Example 148, 3-(4-(1-(2-cyano-1-cyclopentylethyl)-1H-pyrazol-4-yl)pyrimidin-2-ylamino)-N-((5-methylisoxazol-3-yl)methyl)benzamide] | < 100 nM
N#CCC(C1CCCC1)n1cc(-c2ccnc(Nc3cccc(C(=O)N4CCC(O)(c5ccccc5)CC4)c3)n2)cn1 (racemic) [Example 150, 3-cyclopentyl-3-(4-(2-(3-(4-hydroxy-4-phenylpiperidine-1-carbonyl)phenylamino)pyrimidin-4-yl)-1H-pyrazol-1-yl)propanenitrile] | < 100 nM
N#CCC(C1CCCC1)n1cc(-c2ccnc(Nc3cccc(C(=O)N4CCC(O)(Cc5ccccc5)CC4)c3)n2)cn1 (racemic) [Example 151, 3-(4-(2-(3-(4-benzyl-4-hydroxypiperidine-1-carbonyl)phenylamino)pyrimidin-4-yl)-1H-pyrazol-1-yl)-3-cyclopentylpropanenitrile] | < 100 nM
N#CCC(C1CCCC1)n1cc(-c2ccnc(Nc3cccc(C(=O)NCC4CCOCC4)c3)n2)cn1 (racemic) [Example 153, 3-(4-(1-(2-cyano-1-cyclopentylethyl)-1H-pyrazol-4-yl)pyrimidin-2-ylamino)-N-((tetrahydro-2H-pyran-4-yl)methyl)benzamide] | < 100 nM
CN1CCC(NC(=O)c2cccc(Nc3nccc(-c4cnn(C(CC#N)C5CCCC5)c4)n3)c2)CC1 (racemic) [Example 154, 3-(4-(1-(2-cyano-1-cyclopentylethyl)-1H-pyrazol-4-yl)pyrimidin-2-ylamino)-N-(1-methylpiperidin-4-yl)benzamide] | < 100 nM
N#CCC(C1CCCC1)n1cc(-c2ccnc(Nc3cccc(C(=O)N4CCC(c5ccccc5)CC4)c3)n2)cn1 (racemic) [Example 155, 3-cyclopentyl-3-(4-(2-(3-(4-phenylpiperidine-1-carbonyl)phenylamino)pyrimidin-4-yl)-1H-pyrazol-1-yl)propanenitrile] | < 100 nM
N#CCC(C1CCCC1)n1cc(-c2ccnc(Nc3cccc(C(=O)N4CCN(c5ncccn5)CC4)c3)n2)cn1 (racemic) [Example 160, 3-cyclopentyl-3-(4-(2-(3-(4-(pyrimidin-2-yl)piperazine-1-carbonyl)phenylamino)pyrimidin-4-yl)-1H-pyrazol-1-yl)propanenitrile] | < 100 nM
